One test concerns the target T1, ACAT (Rattus norvegicus, UniProt Q7TQM4).
T1 construct: Rat liver microsomes are used as the source of ACAT; from tissue; host or cells: rat liver microsomes
T1 sequence (Q7TQM4 1-524): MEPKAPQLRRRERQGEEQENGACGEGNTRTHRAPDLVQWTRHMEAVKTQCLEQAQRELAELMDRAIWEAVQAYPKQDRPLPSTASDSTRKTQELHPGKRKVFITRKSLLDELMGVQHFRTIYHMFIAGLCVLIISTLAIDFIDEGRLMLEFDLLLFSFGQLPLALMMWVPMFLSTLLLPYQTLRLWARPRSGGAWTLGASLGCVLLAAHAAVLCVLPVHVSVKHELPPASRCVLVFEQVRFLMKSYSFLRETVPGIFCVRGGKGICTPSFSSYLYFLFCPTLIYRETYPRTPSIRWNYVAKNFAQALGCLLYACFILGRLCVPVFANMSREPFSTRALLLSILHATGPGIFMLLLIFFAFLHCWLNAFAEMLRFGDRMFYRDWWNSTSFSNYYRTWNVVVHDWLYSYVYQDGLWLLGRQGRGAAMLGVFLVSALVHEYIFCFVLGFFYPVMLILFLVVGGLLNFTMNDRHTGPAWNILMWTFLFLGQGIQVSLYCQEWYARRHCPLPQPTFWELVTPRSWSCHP
The test can be described thus: ACAT Assay (in vitro). The format is biochemical. To be noted: for inhibition at 10 µM: Conc. 10 µM, negative = apparent stimulation, read-out: ACAT (in vitro) % Inhib.

For the next test, the system named is Hyperlipidemic Hamster. The test can be described thus: In Vivo Assay of Hypolipidemic Agents Using the Hyperlipidemic Hamster. As to conditions: Mesocricetus auratus, po, 168 h, 50 mg/kg once daily oral, 7 days, percent change versus control, negative = lowering. The method, boiled down:
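Hamsters, six per group, were fed chow with 0.5% cholesterol for seven days and given compound once daily by oral gavage in corn oil; controls received corn oil alone. Plasma (EDTA) and liver lipids were measured at sacrifice. Values are percent change versus control, so negative means lowering.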

Setting [1] is: read-out: % Reduction (in vivo) Cholest. Esters.
[2] abbreviates: read-out: % Reduction (in vivo) Serum Cholest.

A word on the IC50: it is the concentration that inhibits the measured activity by half.

Read-outs that look alike come from different tables or passages of the source.

Description for ACAT: This assay measures the activity of ACAT by measuring the ACAT-mediated transfer of tritiated oleic acid from acyl-CoA to cholesterol to give labelled cholesteryl oleate. Rat liver microsomes are used as the source of ACAT. Assays are performed in round bottom microtiterplates using a total incubation volume of 50 μL. […] The microtiterplate is then floated on the surface of a 37° C. water bath for fifteen minutes. Incubations are started by the addition of 3 μL ^3 H-acyl CoA (1 μCi/well, final concentration of 10 μM acyl CoA). The plate is then returned to the water bath for 15 minutes. The incubations are then terminated by application of 15 μL from each incubation to individual lanes on a thin layer plate (Silica Gel GF 20×20 cm). Standards are applied to several lanes so that the cholesteryl ester band can be identified. After drying, the plates am eluted with 90:10:1 petroleum ether:diethyl ether:acetic acid. The standards am visualized via iodine vapor, and the regions corresponding to cholesteryl ester are scraped into 7 mL scintillation vials. 4 mL of scintillant are added to each vial, and the radioactivity quantified. Background count is determined by the boiled controls. Full activity is determined by activity in the presence of vehicle. The percent inhibition is calculated by subtracting the background from both control and test samples, and the test value is calculated as a percentage of the control.
For the in vitro ACAT data, negative percent inhibition denotes apparent stimulation,while positive numbers denote inhibition.

Take `COc1ccc(N2C(=O)[C@@H](CCCc3ccccc3)[C@H]2c2ccc(CO)cc2)cc1` (relative stereo) [Example 15A]: the inhibition at 10 µM on ACAT stood at 2%. Further, the change in vivo at 50 mg/kg with Hyperlipidemic Hamster (setting [1]) and in the test on Hyperlipidemic Hamster (setting [2]) was 0% each time.

Regarding `COc1ccc(N2C(=O)[C@H](CCCc3ccccc3)[C@@H]2c2ccc(C(F)(F)F)cc2)cc1` (relative stereo) [Example 1BH], on ACAT, the inhibition at 10 µM was 50%. Besides, the change in vivo at 50 mg/kg in the test with Hyperlipidemic Hamster (setting [1]) and in the test with Hyperlipidemic Hamster (setting [2]) was 0% throughout.

Regarding `CC[C@@]1(CCCc2ccccc2)C(=O)N(c2ccc(OC)cc2)[C@H]1C=Cc1ccccc1` (relative stereo) [Example 3G], the inhibition at 10 µM at ACAT was found to be 74%. For the same molecule, the IC50 on ACAT (rat liver microsomes, read-out: ACAT (in vitro) IC50) turned out to be 5 µM. The change in vivo at 50 mg/kg was 0% in the test with Hyperlipidemic Hamster (setting [1]) and 9% in the test on Hyperlipidemic Hamster (setting [2]).

Regarding `COc1ccc([C@H]2[C@@H](CCCc3ccccc3)C(=O)N2c2ccc(OCc3ccccc3)cc2)cc1` (relative stereo) [Example 35], the inhibition at 10 µM on ACAT came out at 18%. For the same molecule, the results for the change in vivo at 50 mg/kg with Hyperlipidemic Hamster (setting [1]) and in the test with Hyperlipidemic Hamster (setting [2]) were -32% and -15%, respectively.

`COc1ccc(N2C(=O)[C@H](CCCc3ccccc3)[C@@H]2c2ccsc2)cc1` (relative stereo) [Example 1BJ]: on ACAT, the inhibition at 10 µM was determined as 56%. For the same molecule, the change in vivo at 50 mg/kg with Hyperlipidemic Hamster (setting [1]) and in the test with Hyperlipidemic Hamster (setting [2]) was 0% in each case.

As for `COc1ccc(N2C(=O)[C@@H](CCCc3ccccc3)[C@@H]2c2ccc([N+](=O)[O-])cc2)cc1` (relative stereo) [Example 1G], the inhibition at 10 µM at ACAT is 21%. In addition, the change in vivo at 50 mg/kg in the test on Hyperlipidemic Hamster (setting [1]) was 0%; with Hyperlipidemic Hamster (setting [2]) it was -11%.

Take `COc1ccc(N2C(=O)[C@H](CCCc3ccccc3)[C@@H]2c2ccco2)cc1` (relative stereo) [Example 1BC]: at ACAT, the inhibition at 10 µM is -2%. The change in vivo at 50 mg/kg with Hyperlipidemic Hamster (setting [1]) and in the test on Hyperlipidemic Hamster (setting [2]) was 0% each time.

As to `CC[C@@]1(CCCc2ccccc2)C(=O)N(c2ccc(OC)cc2)[C@@H]1/C=C/c1ccccc1` (relative stereo) [Example 3], the inhibition at 10 µM on ACAT is 56%. In addition, the change in vivo at 50 mg/kg with Hyperlipidemic Hamster (setting [1]) and in the test on Hyperlipidemic Hamster (setting [2]) was 0% each time.

Consider `COc1ccc(N2C(=O)[C@H](CCCc3ccccc3)[C@@H]2c2cccs2)cc1` (relative stereo) [Example 1BI], for which the inhibition at 10 µM on ACAT was 59%. In addition, the change in vivo at 50 mg/kg in the test with Hyperlipidemic Hamster (setting [1]) is -45%; with Hyperlipidemic Hamster (setting [2]), -17%.

As to `COc1ccc(N2C(=O)[C@@H](CCCc3ccccc3)[C@@H]2c2ccc(CO)cc2)cc1` (relative stereo) [Example 15], the inhibition at 10 µM at ACAT was -6%. Further, the change in vivo at 50 mg/kg is -46% with Hyperlipidemic Hamster (setting [1]) and -21% in the test on Hyperlipidemic Hamster (setting [2]).

The record behind these values is US5688787A, “Substituted β-lactam compounds useful as hypochlesterolemic agents and processes for the preparation thereof” (priority 1996, dated 1997).
